Laboratory results: patent US11505548B2, “Heterocyclic compounds and their use for treatment of helminthic infections and diseases” (Celgene Corporation, priority 2019, dated 2022)
Where two headings read alike, the source gives them in different places.

System: Onchocerca gutturosa Adult Male Worms
Test: Onchocerciasis in vitro screening model, worm motility score
Assay type: cell-based
Conditions: read-out: O. gutturosa activity level (IC50 or MED)
[1] = Onchocerca gutturosa, Table 1 O. gutturosa, levels A/B/C, motility or MTT readout not specified
[2] = in vitro, Onchocerca gutturosa adult male worms, class A/B/C

Row | SMILES | IC50 [1] [nM] | IC50 [2] [nM]
1 | Cc1cccnc1Nc1nc(-c2cc(C(=O)N(C)C)c(OC(C)C)cn2)ns1 [Compound 192, 5-isopropoxy-N,N-dimethyl-2-(5-(3-methylpyridin-2-ylamino)-1,2,4-thiadiazol-3-yl)isonicotin-amide] | 500 to 5000 | 
2 | CC(C)Oc1cnc(-c2nsc(Nc3ncccc3C(C)C)n2)cc1C(=O)N(C)C [Compound 193, 5-isopropoxy-2-(5-(3-isopropylpyridin-2-ylamino)-1,2,4-thiadiazol-3-yl)-N,N-dimethy-lisonicotinamide] | 200 to 500 | 
3 | CC(C)Oc1cnc(-c2nsc(Nc3ncccc3N3CCCC3=O)n2)cc1C(=O)N(C)C [Compound 194, 5-isopropoxy-N,N-dimethyl-2-(5-(3-(2-oxopyrrolidin-1-yl)pyridin-2-ylamino)-1,2,4-thiadiazol-3-yl)isonicotin-amide] | 500 to 5000 | 
4 | CC(C)Oc1ccc(-c2nsc(Nc3ncc(C(=O)NC4CC(F)(F)C4)cc3C(C)C)n2)nc1 [Compound 195, N-(3,3-difluoro-cyclobutyl)-6-(3-(5-isoprop-oxypyridin-2-yl)-1,2,4-thiadiazol-5-ylamino)-5-isopropyl-nicotinamide] | < 200 | 
5 | COC(=O)c1cc(-c2nsc(Nc3ncccc3C)n2)ncc1OC(C)C [Compound 196, methyl 5-isopropoxy-2-(5-(3-methylpyridin-2-ylamino)-1,2,4-thiadiazol-3-yl)isonicotinate] | 200 to 500 | 
6 | COC(=O)c1cc(-c2nsc(Nc3ncccc3C(C)C)n2)ncc1OC(C)C [Compound 197, methyl 5-isopropoxy-2-(5-(3-isopropylpyridin-2-ylamino)-1,2,4-thiadiazol-3-yl)isonicotinate] | < 200 | 
7 | CC(C)Oc1cnc(-c2nsc(Nc3ncccc3C(C)C)n2)cc1C(N)=O [Compound 198, 5-isopropoxy-2-(5-(3-isopropylpyridin-2-ylamino)-1,2,4-thiadiazol-3-yl)isonicotin-amide] |  | 500 to 5000
8 | CC(=O)N(C)c1cccnc1Nc1nc(-c2ccc(OC3CCOCC3)cn2)ns1 [Compound 199, N-methyl-N-(2-(3-(5-(tetrahydro-2H-pyran-4-yloxy)pyridin-2-yl)-1,2,4-thiadiazol-5-ylamino)pyridin-3-yl)acetamide] |  | 500 to 5000
9 | Cc1cccnc1Nc1nc(-c2cc(C#N)c(OC(C)C)cn2)ns1 [Compound 200, 5-isopropoxy-2-(5-(3-methylpyridin-2-ylamino)-1,2,4-thiadiazol-3-yl)isonicotino-nitrile] |  | 500 to 5000
10 | CC(C)Oc1cnc(-c2nsc(Nc3ncccc3C(C)C)n2)cc1C#N [Compound 201, 5-isopropoxy-2-(5-(3-isopropyl-pyridin-2-ylamino)-1,2,4-thiadiazol-3-yl)isonicotino-nitrile] |  | 500 to 5000
11 | CC(=O)N(C)c1cccnc1Nc1nc(-c2cc3c(cn2)N(C)CC3)ns1 [Compound 202, N-methyl-N-(2-(3-(1-methyl-2,3-dihydro-1H-pyrrolo[2,3-c]pyridin-5-yl)-1,2,4-thiadiazol-5-ylamino)pyridin-3-yl)acetamide] |  | 200 to 500
12 | CC(=O)N(C)c1cccnc1Nc1nc(-c2ccc(OC3CCN(C(C)C)CC3(F)F)cn2)ns1 (centres unmarked) [Compound 203, N-(2-(3-(5-(3,3-difluoro-1-isopropyl-piperidin-4-yloxy)pyridin-2-yl)-1,2,4-thiadiazol-5-ylamino)pyridin-3-yl)-N-methylacetamide] |  | 500 to 5000
13 | O=C1CCCN1c1cccnc1Nc1nc(-c2ccc(NC34CC(C3)C4)cn2)ns1 [Compound 204, 1-(2-(3-(5-(bicyclo [1.1.1]pentan-1-ylamino)pyridin-2-yl)-1,2,4-thiadiazol-5-ylamino)pyridin-3-yl)pyrrolidin-2-one] |  | 500 to 5000
14 | CC(=O)N(c1cccnc1Nc1nc(-c2ccc(OC(C)C)cn2)ns1)C(C)C [Compound 205, N-(2-(3-(5-isopropoxy-pyridin-2-yl)-1,2,4-thiadiazol-5-ylamino)pyridin-3-yl)-N-isopropy-lacetamide] |  | 500 to 5000
